# Measured values published in US6531512B1, “Method of treating cancer in patients having a deficiency in p53 tumor suppressor gene” (Health Research Inc., priority 1998, dated 2003).
# Marks after values point to notes of the source that are not given here.
# Experiments:
# [1] = test system: MALME-3M human melanoma cells; test: Cell cycle distribution of MALME-3M cells by flow cytometry; assay type: cell-based
# Procedure: (§1) MALME-3M cells were cultured as described in Example 1 and treated with 10 μM DENSPM as described in Example 2. Cell cycle arrest was monitored using a FACScan flow cytometry unit (Becton Dickinson, San Jose, Calif.) according to the method of Krishan (1975) J. Cell Biol. 66:[…]. Untreated MALME-3M cell cultures were used as controls.
# Cell cycle arrest of serum synchronized MALME-3M cells was also monitored using flow cytometry. MALME-3M cells were synchronized in G0/G1 by replacing cell culture media containing 10% NuSerum (see Example 1) with media lacking NuSerum and incubating the cultures for 120 hours. The synchronized cells were released by the addition of 10% NuSerum (control culture) or 10% NuSerum plus 10 μM DENSPM. The cells were then grown continuously in the presence of serum (control) or DENSPM for up to 96 hours. The untreated cells (control) re-established an asynchronous profile (i.e., progressed through the cell cycle) by 60 hours.
# (§2) The effect of DENSPM and spermine on cell growth was monitored using a Coulter Counter (see Example 2). The effect on cell cycle was monitored by flow cytometry as described in Example 3.
# [2] = test system: MALME-3M human melanoma cells; test: Cell growth of MALME-3M cells (Coulter Counter); assay type: cell-based; conditions: 10 μM
# Procedure: MALME-3M human melanoma cells containing wt-p53 (American Tissue Type Culture Collection, Bethesda, Md.) and human SK-MEL-28 cells containing mt-p53 (American Tissue Type Culture Collection, Bethesda, Md.) were cultured as a monolayer in RPMI 1640 medium containing 10% Nu-Serum (Collaborative Research Products, Bedford, Mass.), 1 mM aminoguanidine, penicillin (50 units/ml) and streptomycin (50 μg/ml) as described by Kramer et al, J. Biol. Chem., 270:2124-32 (1995) and Kramer et al., Cancer Res., 57:5521-5527 (1997).
# MALME-3M cells were cultured as described in Example 1. The cells were seeded by adding 1×10^5 cells to a T-25 vented cell culture flask. After 24 hours, the asynchronous cell cultures were treated with 10 μM N^1, N^11-diethylnorspermine (DENSPM) prepared by dissolving DENSPM in distilled water and sterilizing the solution by filtration through a 0.22 micron Millipore membrane. The cells were treated by continuous exposure to DENSPM for 6 days (i.e., the polyamine was added to the cell culture at T=0 and the culture was incubated for the desired amount of time). The number of viable MALME-3M cells were monitored electronically using a Model ZM Coulter Counter (Coulter Electronics, Hialeah, Fla.). Untreated MALME-3M cell cultures were used as controls.
# (§3) MALME-3M human melanoma cells were cultured as described in Example 1 and treated continuously with 10 μM DENSPM or 10 μM spermine (SPM) for 48 hours. SK-MEL-28 cells were also cultured as described in Example 1 and treated with 10 μM DENSPM for 24 hours. Untreated cells were used as a control.
# as §2
# [3] = test system: SK-MEL-28 human melanoma cells; test: Cell cycle distribution of SK-MEL-28 cells by flow cytometry; assay type: cell-based; conditions: SK-MEL-28 (mt-p53), attached cells, 10 μM, 24 hours treatment (footnote)
# Procedure: as §1, §3, §2
# [4] = test system: mRNA for p53 and p21; test: Northern blot of p53 and p21 mRNA in MALME-3M cells; assay type: cell-based, human; conditions: asynchronous, 10 μM
# Procedure: Asynchronously growing MALME-3M cells were treated for 0 to 48 hours with 10 μM DENSPM as described in Example 2. Northern blots were used to detect mRNA for p53 and p21. The Northern blot procedure is described by Fogel-Petrovic et al. in Molec. Pharn, 52:69-74 (1997); and Biochemistry, 35:14436-14444 (1996). cDNA probes used in Nothern blot hybridization of p21 and p53 mRNA were obtained, respectively, from Dr. Bert Vogelstein (Johns Hopkins Oncology Center, Baltimore, Md.; El-Deiry et al., Cell, 75:817-825) and from Dr. Stephen Friend (Seattle, Wash.; Ishioka et al., Oncogene 10:1485-1492 (1995)). The relative increase in mRNA with analog treatment was normalized to the […] (GAPDH) signal to account for lane loading differences.
# [5] = test system: cell cycle regulatory proteins, including p53, p21, p27, ppRb, pRb, cyclin D1 and PCNA; test: Western blot of cell cycle regulatory proteins in MALME-3M cells; assay type: cell-based, human; conditions: 10 μM
# Procedure: MALME-3M and SK-MEL-28 cells cultured as described in Example 4 were treated with 10 μM DENSPM for 0 to 48 hours. Western blot analysis of cell cycle regulatory proteins, including p53, p21, p27, ppRb, pRb, cyclin D1 and PCNA was performed following the procedure described by Fogel-Petrovic et al. in Molec. Pharm, 52:69-74 (1997); and Biochemistry, 35:14436-14444 (1996). Antibodies used for detecting the proteins were obtained commercially as follows: p53 from Santa Cruz Biotechnology, Inc. (Santa Cruz, Calif.); PCNA and Cyclin D1 from Oncogene Research Products (Cambridge, Mass.); Rb and p21 from PharMigen (San Diego, Calif.); p27 from Transduction labs (Lexington, Ky.) and β-actin (used to correct for variations in loading) from Sigma Chemical Co. (St. Louis, Mo.). Western blot analysis of each of these proteins was performed at least three times.
structure (smiles),measurement,setting,value
"CCNCCCNCCCNCCCNCC [DENSPM, N^1,N^11-diethylnorspermine]","% Total Cells at 48 hours, G1","[1]; MALME-3M (wt-p53), asynchronous, 10 μM, 48 hours",88%
same,cell cycle distribution of serum synchronized cells,"[1]; MALME-3M synchronized in G0/G1, released with serum plus 10 μM, up to 96 hours",accumulated in the G1 and G2/M phases of the cycle but not in S phase
same,onset of G1 arrest after treatment,"[1]; MALME-3M, asynchronous, 10 μM",about 16 hours
same,% Control Growth,"[2]; MALME-3M (wt-p53), 48 hours",54%
same,% Growth Control,"[2]; MALME-3M (wt-p53), Table 2 (24 hours treatment)",83%
same,time course of viable cell number,"[2]; MALME-3M, asynchronous, continuous exposure 6 days","steady growth for the first 24 hours, then a plateau and then began to decline in number from 48 hours onwards"
same,"% Total Cells, G1",[3],74** %
same,"% Total Cells, G2/M",[3],9** %
same,"% Total Cells, S",[3],17** %
same,start of p21 mRNA increase,[4],12 h
same,p53 mRNA,"[4]; 0 to 48 hours, normalized to GAPDH",remained constant
same,p21 mRNA increase,"[4]; 48 hours, normalized to GAPDH",about 20 fold
same,appearance of the hypophosphorylated Rb (pRb) protein band,[5],about 16 hours
same,start of increase in p21,[5],about 12 hours
same,start of increase in wild type p53,[5],about 12 hours
same,time of p21 maximum,[5],30 h
same,time of p53 maximum,[5],30 h
same,protein levels of PCNA,[5]; 0 to 48 hours,unaffected
same,"p21 protein increase relative to zero treatment time (densitometry, normalized to β-actin)",[5]; 30 hour peak,5 fold
same,"p53 protein increase relative to zero treatment time (densitometry, normalized to β-actin)",[5]; 30 hour peak,10 fold
same,"levels of p130, cyclin D1 and cyclin E",[5]; 48 hour time course (data not shown),relatively constant
same,Rb phosphorylation state by 48 hours,[5]; 48 hours,pRb was the only species
same,p27 maximum induction,[5]; at 24 to 30 hours,about 1.5 fold
